Experimental data taken from paper doi:10.1101/2024.06.17.599304v1, “Dizocilpine derivatives with neuroprotective effect lacking the psychomimetic side effects” (biorxiv, 2024).
Where a name gives a salt, the structure may show the parent alone.

Columns and labels:
[1] = target: T1, human recombinant AChE (hAChE) (Homo sapiens, UniProt P22303); experiment: modified Ellman's method; type: biochemical
T1 construct: recombinant enzyme purchased from Merck

[2] = target: T2, human plasmatic butyrylcholinesterase (hBChE) (Homo sapiens, UniProt P06276); experiment: biochemical
T2 construct: gene BCHE

hGluN1/hGluN2A [3] = target: T3, hGluN1/hGluN2A (Homo sapiens, UniProt Q05586+Q12879); design: gene GRIN1; settings: -60 mV; 1 mM L-glutamate, 100 µM glycine; pH 7.3
hGluN1/hGluN2B [4] = target: T4, hGluN1/hGluN2B (Homo sapiens, UniProt Q05586+Q13224); experiment: cell-based; design: gene GRIN1; cDNA vectors for human GluN1-1a and GluN2B co-transfected with GFP in HEK293 cells; diheteromeric receptor; whole-cell voltage-clamp electrophysiology, inhibition of steady-state L-glutamate-induced currents at -60 mV; settings: HEK293; -60 mV, 1 mM L-glutamate
Protocol: (§1) First, we determined the relative inhibition of all novel compounds on the two major diheteromeric NMDA receptor subtypes in the adult cortex – GluN1/GluN2A and GluN1/GluN2B [1] – using a clinically relevant concentration (3 µM). We kept the measured cells at a membrane potential of -60 mV, and the values of relative inhibition by the compounds were calculated from the L-glutamate-induced responses of human versions of the GluN1/GluN2A (hGluN1/hGluN2A) and GluN1/GluN2B (hGluN1/hGluN2B) receptors obtained under steady-state conditions. […] Specifically, in the case of hGluN1/hGluN2A receptors, we obtained relative inhibition values ranging from ∼5% for compound 3h to ∼93% for compound 6f, while for hGluN1/hGluN2B receptors, we measured values ranging from ∼3% for compound 3i to ∼92% for compound 6g at a fixed dose of 3 µM of the tested compound. […] It can be assumed that the positive and negative effects of a given inhibitor of the NMDA receptor in vivo are caused by their affinity and the kinetics of inhibition, in addition to their availability in the CNS. […] In further experiments, we generated concentration-response curves for 6f (0.03-10 µM) and 3l (0.3-300 µM) on both hGluN1/hGluN2A and hGluN1/hGluN2B receptors at negative (-60 mV) and positive (40 mV) membrane potentials (Fig. 2A-D). […] (A, C) Representative whole-cell voltage-clamp recordings of HEK293 cells expressing hGluN1/hGluN2A or hGluN1/hGluN2B receptors showing the inhibitory effects of compound 6f (0.03 - 300 µM) and compound 3l (0.3 - 300 µM) at membrane potentials of 40 mV (A) and -60 mV (C). Glu = 1 mM L-glutamate. (B, D) Normalized inhibitory concentration-response curves for compound 6f and compound 3l for hGluN1/hGluN2A and hGluN1/hGluN2B receptors at membrane potentials of 40 mV (B) and -60 mV (D). Concentration-response curves were fitted using Equation 1; the resulting IC50 values, Hill coefficients, and the numbers of cells measured for each membrane potential are shown in Table 3.

hGluN1/hGluN2A [5] = target: T3, hGluN1/hGluN2A; experiment: cell-based; design: gene GRIN1; cDNA vectors for human GluN1-1a and GluN2A co-transfected with GFP in HEK293 cells; diheteromeric receptor; whole-cell voltage-clamp electrophysiology, inhibition of steady-state L-glutamate-induced currents at -60 mV; settings: HEK293; -60 mV, 1 mM L-glutamate
Protocol: as §1

hGluN1/hGluN2B [6] = target: T4, hGluN1/hGluN2B; design: gene GRIN1; settings: -60 mV; 1 mM L-glutamate, 100 µM glycine; pH 7.3

T1 sequence (P22303 32-614): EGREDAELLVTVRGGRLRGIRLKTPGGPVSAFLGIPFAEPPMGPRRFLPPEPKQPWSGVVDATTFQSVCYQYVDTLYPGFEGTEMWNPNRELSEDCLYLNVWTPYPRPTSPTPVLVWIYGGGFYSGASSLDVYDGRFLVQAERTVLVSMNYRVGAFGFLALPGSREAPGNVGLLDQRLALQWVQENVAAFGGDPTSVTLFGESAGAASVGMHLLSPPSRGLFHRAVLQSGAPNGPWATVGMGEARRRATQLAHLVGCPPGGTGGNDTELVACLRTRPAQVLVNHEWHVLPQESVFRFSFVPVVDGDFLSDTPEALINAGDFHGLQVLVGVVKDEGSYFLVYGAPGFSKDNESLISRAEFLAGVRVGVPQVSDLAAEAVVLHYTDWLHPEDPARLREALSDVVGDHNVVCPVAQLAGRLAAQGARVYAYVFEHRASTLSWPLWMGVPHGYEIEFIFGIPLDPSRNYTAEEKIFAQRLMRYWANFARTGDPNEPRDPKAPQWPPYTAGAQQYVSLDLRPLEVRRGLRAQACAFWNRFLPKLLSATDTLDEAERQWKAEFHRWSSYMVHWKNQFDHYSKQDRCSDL
T2 sequence (P06276 29-602): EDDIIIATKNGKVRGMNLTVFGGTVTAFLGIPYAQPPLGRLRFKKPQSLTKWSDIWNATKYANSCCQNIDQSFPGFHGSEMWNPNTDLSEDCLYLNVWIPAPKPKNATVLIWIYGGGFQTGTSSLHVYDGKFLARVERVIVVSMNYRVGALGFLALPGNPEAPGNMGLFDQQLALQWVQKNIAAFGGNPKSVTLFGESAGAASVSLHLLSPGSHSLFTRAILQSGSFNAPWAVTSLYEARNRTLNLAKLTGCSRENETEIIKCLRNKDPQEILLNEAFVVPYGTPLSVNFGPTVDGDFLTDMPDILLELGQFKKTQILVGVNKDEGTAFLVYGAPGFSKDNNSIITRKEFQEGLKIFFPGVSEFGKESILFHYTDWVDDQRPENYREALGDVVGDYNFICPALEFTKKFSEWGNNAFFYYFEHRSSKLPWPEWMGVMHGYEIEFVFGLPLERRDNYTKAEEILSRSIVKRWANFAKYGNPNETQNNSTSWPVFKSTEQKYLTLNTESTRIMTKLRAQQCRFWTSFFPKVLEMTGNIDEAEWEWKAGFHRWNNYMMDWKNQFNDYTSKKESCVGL
T4 sequence (Q13224 27-1484, other chains not shown): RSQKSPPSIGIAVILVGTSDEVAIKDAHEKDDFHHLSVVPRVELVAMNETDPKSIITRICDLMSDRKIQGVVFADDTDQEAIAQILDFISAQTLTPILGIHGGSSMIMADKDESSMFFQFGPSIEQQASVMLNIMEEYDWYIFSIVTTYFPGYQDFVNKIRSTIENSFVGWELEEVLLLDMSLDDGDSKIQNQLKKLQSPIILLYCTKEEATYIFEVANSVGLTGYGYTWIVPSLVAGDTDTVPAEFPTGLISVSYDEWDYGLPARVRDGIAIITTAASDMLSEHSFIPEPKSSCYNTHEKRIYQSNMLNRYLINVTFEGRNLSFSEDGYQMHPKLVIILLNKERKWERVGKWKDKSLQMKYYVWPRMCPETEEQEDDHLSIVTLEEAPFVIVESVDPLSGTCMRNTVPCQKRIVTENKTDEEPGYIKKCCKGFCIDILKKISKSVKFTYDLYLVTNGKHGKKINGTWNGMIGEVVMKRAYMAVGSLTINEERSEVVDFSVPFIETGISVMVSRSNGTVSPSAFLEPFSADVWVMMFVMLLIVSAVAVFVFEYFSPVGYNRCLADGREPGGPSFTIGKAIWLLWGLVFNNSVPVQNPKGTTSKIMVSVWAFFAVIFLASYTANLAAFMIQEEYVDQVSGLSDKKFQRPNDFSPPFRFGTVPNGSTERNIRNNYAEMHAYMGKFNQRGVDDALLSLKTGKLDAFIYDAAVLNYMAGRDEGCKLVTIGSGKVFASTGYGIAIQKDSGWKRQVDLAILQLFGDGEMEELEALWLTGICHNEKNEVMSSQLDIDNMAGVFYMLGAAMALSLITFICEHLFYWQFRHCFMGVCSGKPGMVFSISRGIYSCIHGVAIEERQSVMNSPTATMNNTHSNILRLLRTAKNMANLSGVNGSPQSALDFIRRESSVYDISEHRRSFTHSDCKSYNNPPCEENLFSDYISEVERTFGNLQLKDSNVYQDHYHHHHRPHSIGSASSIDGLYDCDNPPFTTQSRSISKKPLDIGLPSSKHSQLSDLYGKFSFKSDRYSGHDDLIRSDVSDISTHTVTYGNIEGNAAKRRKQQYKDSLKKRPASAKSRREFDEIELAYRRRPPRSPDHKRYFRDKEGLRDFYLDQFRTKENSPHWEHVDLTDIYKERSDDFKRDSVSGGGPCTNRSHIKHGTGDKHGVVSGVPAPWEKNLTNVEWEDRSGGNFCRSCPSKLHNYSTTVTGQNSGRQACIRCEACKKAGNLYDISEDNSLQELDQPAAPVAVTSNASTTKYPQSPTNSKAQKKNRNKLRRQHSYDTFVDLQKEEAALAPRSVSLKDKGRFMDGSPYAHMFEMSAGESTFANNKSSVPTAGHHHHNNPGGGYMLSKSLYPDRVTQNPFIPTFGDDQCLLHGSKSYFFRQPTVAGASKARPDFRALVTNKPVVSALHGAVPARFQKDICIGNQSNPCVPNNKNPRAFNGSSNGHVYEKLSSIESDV
T3 sequence (Q12879 23-1464, other chains not shown): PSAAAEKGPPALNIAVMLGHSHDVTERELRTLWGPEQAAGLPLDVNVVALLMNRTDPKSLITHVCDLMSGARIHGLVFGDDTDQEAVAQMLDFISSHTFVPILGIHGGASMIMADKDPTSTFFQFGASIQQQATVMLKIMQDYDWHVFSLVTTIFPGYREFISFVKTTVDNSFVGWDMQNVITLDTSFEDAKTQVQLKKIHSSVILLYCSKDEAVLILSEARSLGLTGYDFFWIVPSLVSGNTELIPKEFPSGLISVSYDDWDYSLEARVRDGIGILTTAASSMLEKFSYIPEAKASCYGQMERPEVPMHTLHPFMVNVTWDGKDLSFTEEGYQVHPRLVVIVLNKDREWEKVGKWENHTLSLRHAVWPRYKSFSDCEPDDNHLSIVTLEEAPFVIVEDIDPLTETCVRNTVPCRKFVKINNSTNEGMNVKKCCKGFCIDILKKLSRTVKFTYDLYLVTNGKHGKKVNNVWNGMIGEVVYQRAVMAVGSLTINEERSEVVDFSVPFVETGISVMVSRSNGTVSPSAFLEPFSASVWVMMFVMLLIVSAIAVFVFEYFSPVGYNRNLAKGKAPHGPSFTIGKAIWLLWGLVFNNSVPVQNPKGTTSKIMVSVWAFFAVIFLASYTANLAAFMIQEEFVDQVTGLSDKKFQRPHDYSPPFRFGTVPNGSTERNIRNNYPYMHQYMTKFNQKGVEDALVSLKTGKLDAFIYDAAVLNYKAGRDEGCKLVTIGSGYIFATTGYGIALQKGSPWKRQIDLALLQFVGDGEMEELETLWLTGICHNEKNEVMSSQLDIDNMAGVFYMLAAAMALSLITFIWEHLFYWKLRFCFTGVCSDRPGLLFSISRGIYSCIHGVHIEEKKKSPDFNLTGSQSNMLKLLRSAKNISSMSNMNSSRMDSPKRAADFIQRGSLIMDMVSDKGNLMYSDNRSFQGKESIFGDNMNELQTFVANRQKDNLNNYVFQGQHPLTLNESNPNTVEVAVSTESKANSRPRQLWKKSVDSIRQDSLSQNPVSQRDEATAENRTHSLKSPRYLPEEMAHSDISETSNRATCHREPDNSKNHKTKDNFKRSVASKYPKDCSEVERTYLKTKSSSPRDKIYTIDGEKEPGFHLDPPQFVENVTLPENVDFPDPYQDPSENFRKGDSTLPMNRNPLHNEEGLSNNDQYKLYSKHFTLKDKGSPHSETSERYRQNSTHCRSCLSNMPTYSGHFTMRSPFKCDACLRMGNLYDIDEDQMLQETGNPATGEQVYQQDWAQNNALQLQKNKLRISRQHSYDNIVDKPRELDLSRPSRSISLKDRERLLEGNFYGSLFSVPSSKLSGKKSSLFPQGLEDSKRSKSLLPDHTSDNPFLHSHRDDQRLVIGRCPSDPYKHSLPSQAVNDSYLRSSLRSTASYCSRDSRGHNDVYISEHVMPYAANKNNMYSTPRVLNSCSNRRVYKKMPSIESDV

## CNC1c2ccccc2CCc2ccccc21 [3a, N-methyl-10,11-dihydro-5H-dibenzo[a,d][7]annulen-5-amine hydrochloride]
[1]
  IC50: > 100 µM
[2]
  IC50: > 100 µM
hGluN1/hGluN2A [3]
  RI (%) at 3 μM: 82.34 ± 3.25%
hGluN1/hGluN2B [4]
  inhibition at 3 µM: 71 ± 1.75%

## CCNC1c2ccccc2CCc2ccccc21 [3b, N-ethyl-10,11-dihydro-5H-dibenzo[a,d][7]annulen-5-amine hydrochloride]
[1]
  IC50: > 100 µM
[2]
  IC50: > 100 µM
hGluN1/hGluN2A [5]
  inhibition at 3 µM: 34 ± 4.6%
hGluN1/hGluN2B [4]
  inhibition at 3 µM: 51.8 ± 3.39%

## CC(C)NC1c2ccccc2CCc2ccccc21 [3c, N-isopropyl-10,11-dihydro-5H-dibenzo[a,d][7]annulen-5-amine hydrochloride]
[1]
  IC50: > 100 µM
[2]
  IC50: > 100 µM
hGluN1/hGluN2A [5]
  inhibition at 3 µM: 52.2 ± 5.23%
hGluN1/hGluN2B [4]
  inhibition at 3 µM: 76.9 ± 3.57%

## c1ccc2c(c1)CCc1ccccc1C2NC1CC1 [3d, N-cyclopropyl-10,11-dihydro-5H-dibenzo[a,d][7]annulen-5-amine hydrochloride]
[1]
  IC50: > 100 µM
[2]
  IC50: > 100 µM
hGluN1/hGluN2A [5]
  inhibition at 3 µM: 40.1 ± 3.42%
hGluN1/hGluN2B [4]
  inhibition at 3 µM: 53.6 ± 3.16%

## CCCCNC1c2ccccc2CCc2ccccc21 [3e, N-butyl-10,11-dihydro-5H-dibenzo[a,d][7]annulen-5-amine hydrochloride]
[1]
  IC50: > 100 µM
[2]
  IC50: > 100 µM
hGluN1/hGluN2A [5]
  inhibition at 3 µM: 76.4 ± 4.03%
hGluN1/hGluN2B [4]
  inhibition at 3 µM: 85.8 ± 2.19%

## CC(C)CNC1c2ccccc2CCc2ccccc21 [3f, N-isobutyl-10,11-dihydro-5H-dibenzo[a,d][7]annulen-5-amine hydrochloride]
[1]
  IC50: > 100 µM
[2]
  IC50: > 100 µM
hGluN1/hGluN2B [6]
  RI (%) at 3 μM: 91.62 ± 0.99%
hGluN1/hGluN2A [5]
  inhibition at 3 µM: 76.8 ± 2.99%

## c1ccc2c(c1)CCc1ccccc1C2NC1CCCCC1 [3g, N-cyclohexyl-10,11-dihydro-5H-dibenzo[a,d][7]annulen-5-amine hydrochloride]
[2]
  IC50: 14.4 ± 1.3 µM
hGluN1/hGluN2B [6]
  RI (%) at 3 μM: 85.95 ± 3.13%
hGluN1/hGluN2A [5]
  inhibition at 3 µM: 79.4 ± 2.06%

## c1ccc2c(c1)CCc1ccccc1C2N1CCCCC1 [3h, 1-(10,11-dihydro-5H-dibenzo[a,d][7]annulen-5-yl)piperidine hydrochloride]
[1]
  IC50: > 100 µM
[2]
  IC50: > 100 µM
hGluN1/hGluN2A [5]
  inhibition at 3 µM: 5.4 ± 1.39%
hGluN1/hGluN2B [4]
  inhibition at 3 µM: 5.2 ± 1.56%

## c1ccc2c(c1)CCc1ccccc1C2N1CCOCC1 [3i, 4-(10,11-dihydro-5H-dibenzo[a,d][7]annulen-5-yl)morpholine hydrochloride]
[1]
  IC50: > 100 µM
[2]
  IC50: > 100 µM
hGluN1/hGluN2A [5]
  inhibition at 3 µM: 6.78 ± 1.67%
hGluN1/hGluN2B [4]
  inhibition at 3 µM: 3.43 ± 1.33%

## COCCNC1c2ccccc2CCc2ccccc21 [3j, N-(2-methoxyethyl)-10,11-dihydro-5H-dibenzo[a,d][7]annulen-5-amine hydrochloride]
[1]
  IC50: > 100 µM
[2]
  IC50: > 100 µM
hGluN1/hGluN2A [5]
  inhibition at 3 µM: 34.9 ± 4.8%
hGluN1/hGluN2B [4]
  inhibition at 3 µM: 66.6 ± 3.9%

## c1ccc2c(c1)CCc1ccccc1C2N1CCCC1 [3k, 1-(10,11-dihydro-5H-dibenzo[a,d][7]annulen-5-yl)pyrrolidine hydrochloride]
[1]
  IC50: > 100 µM
[2]
  IC50: > 100 µM
hGluN1/hGluN2A [5]
  inhibition at 3 µM: 49.8 ± 3.27%
hGluN1/hGluN2B [4]
  inhibition at 3 µM: 62.1 ± 3.44%

## CN1CCN(C2c3ccccc3CCc3ccccc32)CC1 [3m, 1-(10,11-dihydro-5H-dibenzo[a,d][7]annulen-5-yl)-4-methylpiperazine dihydrochloride]
[1]
  IC50: > 100 µM
[2]
  IC50: > 100 µM
hGluN1/hGluN2A [5]
  inhibition at 3 µM: 9.7 ± 2.41%
hGluN1/hGluN2B [4]
  inhibition at 3 µM: 9.49 ± 2.17%

## CCN(CC)C1c2ccccc2CCc2ccccc21 [3n, N,N-diethyl-10,11-dihydro-5H-dibenzo[a,d][7]annulen-5-amine hydrochloride]
[1]
  IC50: > 100 µM
[2]
  IC50: > 100 µM
hGluN1/hGluN2A [5]
  inhibition at 3 µM: 68.4 ± 4.84%
hGluN1/hGluN2B [4]
  inhibition at 3 µM: 75 ± 3.14%

## CCN1CCN(C2c3ccccc3CCc3ccccc32)CC1 [3o, 1-(10,11-dihydro-5H-dibenzo[a,d][7]annulen-5-yl)-4-ethylpiperazine dihydrochloride]
[1]
  IC50: > 100 µM
[2]
  IC50: > 100 µM
hGluN1/hGluN2A [5]
  inhibition at 3 µM: 7.64 ± 0.84%
hGluN1/hGluN2B [4]
  inhibition at 3 µM: 5.22 ± 1.49%

## CNC1c2ccccc2C=Cc2ccccc21 [6a, N-methyl-5H-dibenzo[a,d][7]annulen-5-amine hydrochloride]
[1]
  IC50: > 100 µM
[2]
  IC50: > 100 µM
hGluN1/hGluN2A [5]
  inhibition at 3 µM: 54.3 ± 3.11%
hGluN1/hGluN2B [4]
  inhibition at 3 µM: 68.9 ± 3.57%

## CCNC1c2ccccc2C=Cc2ccccc21 [6b, N-ethyl-5H-dibenzo[a,d][7]annulen-5-amine hydrochloride]
[1]
  IC50: > 100 µM
[2]
  IC50: > 100 µM
hGluN1/hGluN2A [5]
  inhibition at 3 µM: 39.9 ± 4.78%
hGluN1/hGluN2B [4]
  inhibition at 3 µM: 59.9 ± 3.15%

## CC(C)NC1c2ccccc2C=Cc2ccccc21 [6c, N-isopropyl-5H-dibenzo[a,d][7]annulen-5-amine hydrochloride]
[1]
  IC50: > 100 µM
[2]
  IC50: > 100 µM
hGluN1/hGluN2A [5]
  inhibition at 3 µM: 75.6 ± 2.36%
hGluN1/hGluN2B [4]
  inhibition at 3 µM: 76 ± 2.22%

## C1=Cc2ccccc2C(NC2CC2)c2ccccc21 [6d, N-cyclopropyl-5H-dibenzo[a,d][7]annulen-5-amine hydrochloride]
[1]
  IC50: > 100 µM
[2]
  IC50: > 100 µM
hGluN1/hGluN2A [5]
  inhibition at 3 µM: 45 ± 3.55%
hGluN1/hGluN2B [4]
  inhibition at 3 µM: 57.2 ± 3.27%

## CCCCNC1c2ccccc2C=Cc2ccccc21 [6e, N-butyl-5H-dibenzo[a,d][7]annulen-5-amine hydrochloride]
[1]
  IC50: > 100 µM
[2]
  IC50: > 100 µM
hGluN1/hGluN2A [5]
  inhibition at 3 µM: 81.1 ± 2.62%
hGluN1/hGluN2B [4]
  inhibition at 3 µM: 79.2 ± 2.84%

## C1=Cc2ccccc2C(NC2CCCCC2)c2ccccc21 [6g, N-cyclohexyl-5H-dibenzo[a,d][7]annulen-5-amine hydrochloride]
[2]
  IC50: 8.5 ± 0.4 µM
hGluN1/hGluN2B [6]
  RI (%) at 3 μM: 92.37 ± 1.82%
hGluN1/hGluN2A [3]
  RI (%) at 3 μM: 92.12 ± 1.48%

## C1=Cc2ccccc2C(N2CCOCC2)c2ccccc21 [6i, 4-(5H-dibenzo[a,d][7]annulen-5-yl)morpholine hydrochloride]
[1]
  IC50: > 100 µM
[2]
  IC50: > 100 µM
hGluN1/hGluN2A [5]
  inhibition at 3 µM: 31.9 ± 4.16%
hGluN1/hGluN2B [4]
  inhibition at 3 µM: 57.6 ± 3.47%

## COCCNC1c2ccccc2C=Cc2ccccc21 [6j, N-(2-methoxyethyl)-5H-dibenzo[a,d][7]annulen-5-amine hydrochloride]
[1]
  IC50: > 100 µM
[2]
  IC50: > 100 µM
hGluN1/hGluN2A [5]
  inhibition at 3 µM: 35.6 ± 1.09%
hGluN1/hGluN2B [4]
  inhibition at 3 µM: 60 ± 4.39%

## C1=Cc2ccccc2C(N2CCCC2)c2ccccc21 [6k, 1-(5H-dibenzo[a,d][7]annulen-5-yl)pyrrolidine hydrochloride]
[1]
  IC50: > 100 µM
[2]
  IC50: > 100 µM
hGluN1/hGluN2A [5]
  inhibition at 3 µM: 48.6 ± 2.99%
hGluN1/hGluN2B [4]
  inhibition at 3 µM: 85.53 ± 0.21%

## OCCNC1c2ccccc2C=Cc2ccccc21 [6l, 2-((5H-dibenzo[a,d][7]annulen-5-yl)amino)ethanol hydrochloride]
[1]
  IC50: > 100 µM
[2]
  IC50: > 100 µM
hGluN1/hGluN2A [5]
  inhibition at 3 µM: 38.2 ± 3.8%
hGluN1/hGluN2B [4]
  inhibition at 3 µM: 48.8 ± 4.13%
